Reference: ChEMBL document CHEMBL6134842, “Acetal functionalized iminosugars for targeting β-glucocerebrosidase modulation” (Eur J Med Chem, 2025)
Substitutions are numbered along the chain they refer to. Active and inactive are the calls of the source. The calls are words filed in the database; no cut-off is given here.

Columns and labels:
[1] = test system: T1, Lysosomal acid glucosylceramidase (Homo sapiens), P04062 [L483P]; test: Modulation of GCase L444P/L444P mutant in Gaucher patient-derived human fibroblasts assessed as GCase rescue at 10 to 100 uM incubated for 4 days by fluorescence based lysed cell assay; conditions: Fibroblast, dose 10-100 µM, time 4.0 day
T1 sequence (whole entry): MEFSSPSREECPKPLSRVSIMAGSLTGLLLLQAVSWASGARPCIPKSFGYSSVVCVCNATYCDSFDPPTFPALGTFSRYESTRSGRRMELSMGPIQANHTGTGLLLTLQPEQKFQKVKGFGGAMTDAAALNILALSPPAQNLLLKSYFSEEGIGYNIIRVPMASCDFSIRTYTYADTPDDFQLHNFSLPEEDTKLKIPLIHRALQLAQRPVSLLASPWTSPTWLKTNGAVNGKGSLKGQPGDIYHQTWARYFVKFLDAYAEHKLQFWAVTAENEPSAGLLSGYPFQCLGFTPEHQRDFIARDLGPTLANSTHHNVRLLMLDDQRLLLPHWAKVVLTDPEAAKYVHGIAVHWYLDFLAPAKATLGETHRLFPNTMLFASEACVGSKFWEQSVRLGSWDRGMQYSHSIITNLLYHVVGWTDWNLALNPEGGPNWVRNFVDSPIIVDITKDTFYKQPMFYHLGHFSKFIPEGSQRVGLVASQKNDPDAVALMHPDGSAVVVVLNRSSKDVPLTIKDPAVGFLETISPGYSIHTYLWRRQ

[2] = test system: Lysosomal acid glucosylceramidase (Homo sapiens), P04062 [UNDEFINED MUTATION]; test: Modulation of GCase N370S/RecNcil mutant in Gaucher patient-derived human fibroblasts assessed as fold increase in GCase rescue at 20 uM incubated for 4 days by fluorescence based lysed cell assay relative to control; conditions: Fibroblast, filed as modulator, time 4.0 day
[3] = Stability of compound at pH 5.8 assessed as compound remaining measured after 1 hr by 1H NMR spectroscopy; type: physicochemical; conditions: buffer, read-out: Stability
[4] = Stability of compound at pH 7 assessed as compound remaining measured after 4 days by 1H NMR spectroscopy; type: physicochemical; conditions: buffer, time 4 day, read-out: Stability
[5] = Stability of compound at pH 5.8 assessed as compound hydrolysis measured after 6 days by 1H NMR spectroscopy; type: physicochemical; conditions: buffer, pH 5.8, 144 h; time 6 day
[6] = molecular target: T2, Lysosomal acid glucosylceramidase (Homo sapiens) (UniProt P04062); test: Inhibition of lysosomal GCase in human leucocytes using 4-methylumbelliferyl-beta-D-glucopyranoside as substrate at 1 mM incubated for 1 hr by fluorescence based assay relative to control; type: cell-based; conditions: Leucocyte
T2 sequence (whole entry): T1 sequence (whole entry) with P483L

[7] = molecular target: T3, Lysosomal acid glucosylceramidase (Homo sapiens, UniProt P04062); test: Non-competitive inhibition of lysosomal GCase in human leucocytes using 4-methylumbelliferyl-beta-D-glucopyranoside as substrate incubated for 1 hr by fluorescence based assay; type: cell-based, Leucocyte
T3 sequence (P04062 whole entry): T1 sequence (whole entry) with P483L

[8] = molecular target: T2, Lysosomal acid glucosylceramidase (Homo sapiens); test: Non-competitive inhibition of lysosomal GCase in human leucocytes using 4-methylumbelliferyl-beta-D-glucopyranoside as substrate assessed as reduction in apparent Vmax incubated for 1 hr by fluorescence based assay; type: cell-based; conditions: Leucocyte
[9] = molecular target: T2, Lysosomal acid glucosylceramidase (Homo sapiens); test: Non-competitive inhibition of lysosomal GCase in human leucocytes using 4-methylumbelliferyl-beta-D-glucopyranoside as substrate assessed as unchanged Km incubated for 1 hr by fluorescence based assay; type: cell-based; conditions: Leucocyte
[10] = molecular target: T2, Lysosomal acid glucosylceramidase (Homo sapiens); test: Inhibition of lysosomal GCase in human leucocytes using 4-methylumbelliferyl-beta-D-glucopyranoside as substrate incubated for 1 hr by Lineweaver-burk plot analysis; type: cell-based; conditions: Leucocyte
[11] = molecular target: T2, Lysosomal acid glucosylceramidase (Homo sapiens); test: Inhibition of lysosomal GCase in human leucocytes using 4-methylumbelliferyl-beta-D-glucopyranoside as substrate at 1 mM measured immediately by fluorescence based assay relative to control; type: cell-based; conditions: Leucocyte
[12] = molecular target: T2, Lysosomal acid glucosylceramidase (Homo sapiens); test: Inhibition of lysosomal GCase in human leucocytes using 4-methylumbelliferyl-beta-D-glucopyranoside as substrate at 1 mM measured after 12 hrs by fluorescence based assay relative to control; type: cell-based; conditions: Leucocyte
[13] = molecular target: T2, Lysosomal acid glucosylceramidase (Homo sapiens); test: Inhibition of lysosomal GCase in human leucocytes using 4-methylumbelliferyl-beta-D-glucopyranoside as substrate at 1 mM measured 24 hrs by fluorescence based assay relative to control; type: cell-based; conditions: Leucocyte
[14] = molecular target: T2, Lysosomal acid glucosylceramidase (Homo sapiens); test: Inhibition of lysosomal GCase in human leucocytes using 4-methylumbelliferyl-beta-D-glucopyranoside as substrate at 1 mM measured 36 hrs by fluorescence based assay relative to control; type: cell-based; conditions: Leucocyte
[15] = test system: Lysosomal acid glucosylceramidase (Homo sapiens), P04062 [UNDEFINED MUTATION]; test: Modulation of GCase N370S/RecNcil mutant in Gaucher patient-derived human fibroblasts assessed as fold increase in GCase rescue at 100 uM incubated for 4 days by fluorescence based lysed cell assay relative to control; conditions: Fibroblast, filed as modulator, time 4.0 day
[16] = test system: Lysosomal acid glucosylceramidase (Homo sapiens), P04062 [UNDEFINED MUTATION]; test: (§1) Modulation of GCase N370S/RecNcil mutant in Gaucher patient-derived human fibroblasts using 4-methylumbelliferyl beta-D-glucopyranoside as substrate assessed as fold increase in GCase rescue at 30 uM preincubated for 4 days followed by compound washout and substrate addition measured after 2 hrs by fluorescence based intact cell enzyme assay relative to control; conditions: Fibroblast, filed as modulator, time 4.0 day
[17] = test system: T1, Lysosomal acid glucosylceramidase (Homo sapiens), P04062 [L483P]; test: Modulation of GCase L444P/L444P mutant in Gaucher patient-derived human fibroblasts assessed as fold increase in GCase rescue at 100 uM incubated for 4 days by fluorescence based lysed cell assay relative to control; conditions: Fibroblast, filed as modulator, time 4.0 day
[18] = test system: T1, Lysosomal acid glucosylceramidase (Homo sapiens), P04062 [L483P]; test: as §1, with “L444P/L444P” for “N370S/RecNcil”; conditions: Fibroblast, filed as modulator, time 4.0 day
[19] = test system: Lysosomal acid glucosylceramidase (Homo sapiens), P04062 [UNDEFINED MUTATION]; test: Modulation of GCase N370S/RecNcil mutant in Gaucher patient-derived human fibroblasts assessed as GCase rescue at 10 to 100 uM incubated for 4 days by fluorescence based lysed cell assay; conditions: Fibroblast, dose 10-100 µM, time 4.0 day
[20] = Antioxidant activity assessed as DPPH radical scavenging activity at 400 umol measured after 10 mins relative to control; type: functional; conditions: dose 400.0 µmol
[21] = test system: Lysosomal acid glucosylceramidase (Homo sapiens), P04062 [UNDEFINED MUTATION]; test: Modulation of GCase N370S/RecNcil mutant in Gaucher patient-derived human fibroblasts assessed as fold increase in GCase rescue at 10 uM incubated for 4 days by fluorescence based lysed cell assay relative to control; conditions: Fibroblast, filed as modulator, time 4.0 day
[22] = test system: T1, Lysosomal acid glucosylceramidase (Homo sapiens), P04062 [L483P]; test: Modulation of GCase L444P/L444P mutant in Gaucher patient-derived human fibroblasts assessed as fold increase in GCase rescue at 50 uM incubated for 4 days by fluorescence based lysed cell assay relative to control; conditions: Fibroblast, filed as modulator, time 4.0 day
[23] = test system: T1, Lysosomal acid glucosylceramidase (Homo sapiens), P04062 [L483P]; test: Modulation of GCase L444P/L444P mutant in Gaucher patient-derived human fibroblasts assessed as GCase rescue at 10 uM incubated for 4 days by fluorescence based lysed cell assay; conditions: Fibroblast, filed as modulator, time 4.0 day
[24] = Antioxidant activity assessed as inhibition of DPPH radical scavenging activity measured after 10 mins relative to control; type: functional
[25] = test system: Lysosomal acid glucosylceramidase (Homo sapiens), P04062 [UNDEFINED MUTATION]; test: Modulation of GCase N370S/RecNcil mutant in Gaucher patient-derived human fibroblasts assessed as fold increase in GCase rescue at 50 uM incubated for 4 days by fluorescence based lysed cell assay relative to control; conditions: Fibroblast, filed as modulator, time 4.0 day
[26] = test system: Lysosomal acid glucosylceramidase (Homo sapiens), P04062 [UNDEFINED MUTATION]; test: as §1, with “as” for “as fold increase in”, “10 to 100” for “30”, “assay” for “assay relative to control”; conditions: Fibroblast, dose 10-100 µM, time 4.0 day
[27] = Antioxidant activity assessed as DPPH radical scavenging activity at 200 umol measured after 10 mins relative to control; type: functional; conditions: dose 200.0 µmol

Sequence of Lysosomal acid glucosylceramidase (Homo sapiens), P04062 [UNDEFINED MUTATION] (P04062 whole entry, looked up, stated change not applied): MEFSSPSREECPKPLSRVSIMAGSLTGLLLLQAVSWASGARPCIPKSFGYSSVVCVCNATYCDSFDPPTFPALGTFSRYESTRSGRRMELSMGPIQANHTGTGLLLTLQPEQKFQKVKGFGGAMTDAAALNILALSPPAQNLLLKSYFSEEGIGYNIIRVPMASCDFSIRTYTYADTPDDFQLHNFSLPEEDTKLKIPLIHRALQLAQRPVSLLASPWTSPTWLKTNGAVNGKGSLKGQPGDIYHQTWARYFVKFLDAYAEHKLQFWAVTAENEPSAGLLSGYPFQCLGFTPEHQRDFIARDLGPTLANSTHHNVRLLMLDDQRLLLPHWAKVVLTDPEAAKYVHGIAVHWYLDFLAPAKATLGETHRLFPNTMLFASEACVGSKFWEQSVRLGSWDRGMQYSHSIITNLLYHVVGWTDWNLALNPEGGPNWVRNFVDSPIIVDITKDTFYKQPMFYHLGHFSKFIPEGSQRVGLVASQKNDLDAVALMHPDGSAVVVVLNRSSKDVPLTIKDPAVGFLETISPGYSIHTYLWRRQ

SMILES: CCCCOC1OCC(CNC(=S)N2C[C@H](O)[C@@H](O)[C@H](O)[C@H]2CO)O1 (some centres not stated)
- Activity [1]: inactive
- fold change (FC) [2]: 1.5

SMILES: OC1[C@H](O)CN(CC[C@H]2COC(c3ccc(Br)cc3)O2)C[C@H]1O (some centres not stated)
- remaining at 1 h [3]: > 95%
- remaining at 96 h [4]: > 95%
- Stability [5]: Stable
- inhibition [6]: 75%
- IC50 [7]: 100 µM
- inhibition [8]: Active
- inhibition [9]: Active
- inhibition [10]: Active; The Secondary Plot Was Concave Upward, Rather Than Linear, Thus Confirming That Inhibitory Effect Arises From The Binding Of More Than One Molecule Of Compound On Enzyme Surface; Not Attributable To A Cooperativity Phenomenon
- inhibition [11]: 80%
- inhibition [12]: 77%
- inhibition [13]: 80%
- inhibition [14]: 76%
- fold change (FC) [15]: 1.83
- fold change (FC) [16]: 1.46
- fold change (FC) [17]: 1.56
- fold change (FC) [18]: 1.26

SMILES: COc1cc(C2OC[C@H](CCN3C[C@@H](O)C(O)[C@H](O)C3)O2)ccc1O (some centres not stated)
- remaining at 1 h [3]: 82%
- remaining at 96 h [4]: 61%
- inhibition [6]: 70%
- Activity [19]: inactive
- Activity [1]: inactive
- Activity [20]: 14%

SMILES: OC[C@H]1CNC[C@@H](O)[C@@H]1O
- fold change (FC) [21]: 2

SMILES: O=[N+]([O-])c1ccc(C2OC[C@H](CCN3C[C@@H](O)C(O)[C@H](O)C3)O2)cc1 (some centres not stated)
- remaining at 1 h [3]: > 95%
- remaining at 96 h [4]: > 95%
- Stability [5]: Stable
- inhibition [6]: 77%
- IC50 [7]: 300 µM
- fold change (FC) [15]: 1.6
- Activity [1]: inactive

SMILES: Nc1c(Br)cc(Br)cc1CN[C@H]1CC[C@H](O)CC1
- fold change (FC) [22]: 1.3

SMILES: OC1[C@H](O)CN(CC[C@H]2COC(OCc3ccc(-c4ccccc4)cc3)O2)C[C@H]1O (some centres not stated)
- fold change (FC) [15]: 1.61
- fold change (FC) [22]: 2.11
- fold change (FC) [23]: 2.03

SMILES: Cc1cc(C(C)(C)C)c(O)c(C(C)(C)C)c1
- inhibition [24]: > 95%

SMILES: CCCCCCCCCCCCOC1OC[C@H](CCN2C[C@@H](O)C(O)[C@H](O)C2)O1 (some centres not stated)
- fold change (FC) [22]: 2.15
- fold change (FC) [25]: 1.92
- fold change (FC) [21]: 2.06
- fold change (FC) [23]: 1.24

SMILES: COc1cc(/C=C/C2OC[C@H](CCN3C[C@@H](O)C(O)[C@H](O)C3)O2)ccc1O (some centres not stated)
- remaining at 1 h [3]: 87%
- remaining at 96 h [4]: 72%
- inhibition [6]: 84%
- inhibition [11]: 75%
- inhibition [12]: 69%
- inhibition [13]: 55%
- inhibition [14]: 47%
- fold change (FC) [15]: 1.5
- Activity [26]: inactive
- fold change (FC) [22]: 1.3
- Activity [27]: 67%
